From the OligoGym collection
Several values for one entry are separate records, joined by “and”; a condition that tells them apart may be missing. Equal values may be shown once. After the bases stand the sugars from the 5' end (letter, count) and the backbone: PS all phosphorothioate, else s phosphorothioate and o phosphodiester by linkage. Methylation of C is not given here. e = 2'-O-(2-methoxyethyl) (MOE); k = constrained ethyl (cEt); d = 2'-deoxy (DNA)

Biological target: SOD1
Conditions: ASO

Row | Sequence | target mRNA inhibition (HepG2, 3 µM) | target mRNA inhibition (HepG2, 5 µM) | target mRNA inhibition (HepG2, 4 µM) | also measured
1 | AAGGGAATGTTTATTGG (sugars e3 k2 d7 k2 e3, PS) | 2% |  |  | 
2 | GTGCCATACAGGGTTTT (sugars e3 k2 d7 k2 e3, PS) | 7% |  |  | 
3 | CTATACAAATCTTCCAA (sugars e3 k2 d7 k2 e3, PS) | 13% |  |  | 
4 | TTTTTTAGTTTGAATTTGGA (sugars e5 d10 e5, PS) |  | 0% |  | 
5 | GTGTTTAATGTTTATCA (sugars e2 k2 d9 k2 e2, PS) | 86% | 86% |  | target mRNA inhibition (HepG2, 0.1875 µM): 42%; target mRNA inhibition (HepG2, 0.75 µM): 68%; target mRNA inhibition (HepG2, 12 µM): 89%
6 | GGATACATTTCTACAGC (sugars e2 k2 d9 k2 e2, linkages s1 o3 s9 o1 s2) |  |  |  | target mRNA inhibition (A431, 0.12 µM): 4%; target mRNA inhibition (A431, 0.6 µM): 12%; target mRNA inhibition (A431, 3 µM): 36%; target mRNA inhibition (A431, 15 µM): 51%; target mRNA inhibition (HepG2, 0.222 µM): 62%; target mRNA inhibition (HepG2, 0.667 µM): 78%; target mRNA inhibition (HepG2, 2 µM): 95%; target mRNA inhibition (HepG2, 6 µM): 91%
7 | GAGACTACGACGCAAACCAG (sugars e5 d10 e5, PS) |  |  | 23% | 
8 | TATTCACAGGCTTGAAT (sugars e2 k2 d9 k2 e2, PS) |  | 11% |  | 
9 | TTTATTCACAGGCTTGA (sugars e2 k2 d8 k2 e3, PS) |  | 44% |  | 
10 | AAATCTTCCAAGTGATC (sugars e3 k2 d7 k2 e3, PS) | 4% |  |  | 
11 | ATTCTGACAAGTTTAAT (sugars e3 k2 d7 k2 e3, PS) | 9% |  |  | 
12 | AGGATACATTTCTACAG (sugars e2 k2 d8 k2 e3, PS) |  |  | 60% | 
13 | GGTCCTGGTTCCGAGGACTG (sugars e5 d10 e5, PS) |  |  | 14% | 
14 | CAGACTACATCCAAGGG (sugars e2 k2 d8 k2 e3, PS) | 84% |  | 81% | target mRNA inhibition (HepG2, 0.1875 µM): 25%; target mRNA inhibition (HepG2, 0.75 µM): 60%; target mRNA inhibition (HepG2, 12 µM): 91%
15 | ATGTTTATCAGGATACA (sugars e2 k2 d8 k2 e3, linkages s1 o2 s9 o2 s2) |  |  |  | target mRNA inhibition (A431, 0.12 µM): 2%; target mRNA inhibition (A431, 0.6 µM): 4%; target mRNA inhibition (A431, 3 µM): 12%; target mRNA inhibition (A431, 15 µM): 52%; target mRNA inhibition (HepG2, 0.222 µM): 53%; target mRNA inhibition (HepG2, 0.667 µM): 73%; target mRNA inhibition (HepG2, 2 µM): 89%; target mRNA inhibition (HepG2, 6 µM): 90%
16 | TAGGCCAGACCTCCGCGCCT (sugars e5 d10 e5, PS) |  |  | 33% | 
17 | CACCCCGTCTCCGCGACTAC (sugars e5 d10 e5, PS) |  |  | 13% | 
18 | GTGATCATAAATCAGTT (sugars e2 k2 d9 k2 e2, PS) |  | 48% |  | 
19 | TTCTCACTACAGGTACT (sugars e2 k2 d9 k2 e2, PS) |  | 37% |  | 

Row | Sequence | target mRNA inhibition (HepG2, 3 µM) | target mRNA inhibition (HepG2, 5 µM) | target mRNA inhibition (HepG2, 4 µM) | also measured
20 | AATCTTCCAAGTGATCATAA (sugars e5 d10 e5, PS) |  | 4% |  | 
21 | CCTCAGACTACATCCAA (sugars e3 k2 d7 k2 e3, PS) | 58% and 70% |  |  | target mRNA inhibition (HepG2, 0.1875 µM): 16%; target mRNA inhibition (HepG2, 0.75 µM): 42%; target mRNA inhibition (HepG2, 12 µM): 84%
22 | CGAAATTGATGATGCCCTGC (sugars e5 d10 e5, PS) |  |  | 32% | 
23 | CCAATGATGCAATGGTCTCC (sugars e5 d10 e5, PS) |  | 8% |  | 
24 | GGAATGTTTATTGGGCG (sugars e2 k2 d9 k2 e2, PS) |  |  | 58% | 
25 | ATTACACCACAAGCCAA (sugars e2 k2 d9 k2 e2, PS) |  |  | 63% | 
26 | GAGTTTTATAAAACTAT (sugars e3 k2 d7 k2 e3, PS) | 6% |  |  | 
27 | AGGATACATTTCTACAGCTA (sugars e5 d10 e5, PS) | 82% | 79% | 56% | target mRNA inhibition (HepG2, 0.1875 µM): 29%; target mRNA inhibition (HepG2, 0.75 µM): 47%; target mRNA inhibition (HepG2, 12 µM): 80% and 96%
28 | TTACACCACAAGCCAAA (sugars e2 k2 d8 k2 e3, PS) |  |  | 60% | 
29 | GCCTCAGACTACATCCA (sugars e3 k2 d7 k2 e3, PS) | 43% |  |  | 
30 | TACACCACAAGCCAAAC (sugars e2 k2 d8 k2 e3, PS) |  |  | 56% | 
31 | ACTACATCCAAGGGAAT (sugars e2 k2 d8 k2 e3, PS) |  |  | 42% | 
32 | TCTACAGCTAGCAGGAT (sugars e2 k2 d9 k2 e2, PS) | 85% |  | 83% | target mRNA inhibition (HepG2, 0.1875 µM): 27%; target mRNA inhibition (HepG2, 0.75 µM): 61%; target mRNA inhibition (HepG2, 12 µM): 96%
33 | GCGATCCCAATTACACC (sugars e3 k2 d7 k2 e3, PS) | 19% |  |  | 
34 | ATTCACAGGCTTGAATG (sugars e2 k2 d8 k2 e3, PS) |  | 19% |  | 
35 | CCAATTACACCACAAGC (sugars e2 k2 d8 k2 e3, PS) |  |  | 66% | 
36 | CAAGGGAATGTTTATTG (sugars e2 k2 d9 k2 e2, PS) |  |  | 38% | 
37 | GAATCTTCAATAGACACATC (sugars e5 d10 e5, PS) |  | 22% and 11% |  | 
38 | AATTACACTTTTAAGATTAC (sugars e5 d10 e5, PS) |  | 1% |  | 
